Experimental data taken from patent publication US20230399342A1 (Incyte Corporation, priority 2022, published 2023).

Columns and labels:
DGKα = DGKα (Homo sapiens (Human), UniProt P23743); assay: In vitro DGKα inhibition assay (ADP-Glo); assay type: biochemical; conditions: His-tagged human recombinant enzyme, 0.1 nM DGKα, 50 μM ATP, 20 μM DLG, 90 minute incubation
Method in brief: (§1)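 His-tagged human DGKα (0.1 nM, 50 μM ATP) or DGKζ (0.4 nM, 30 μM ATP), each with 20 μM DLG, in Tris pH 7.5 buffer with CHAPS, Mg2+, Ca2+.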

DGKζ = DGKζ (Homo sapiens (Human), UniProt Q13574); assay: In vitro DGKζ inhibition assay (ADP-Glo); assay type: biochemical; conditions: His-tagged human recombinant enzyme, 0.4 nM DGK, 30 μM ATP, 20 μM DLG, 90 minute incubation
Method in brief: as §1

DGKζ, sequence (Q13574 whole entry): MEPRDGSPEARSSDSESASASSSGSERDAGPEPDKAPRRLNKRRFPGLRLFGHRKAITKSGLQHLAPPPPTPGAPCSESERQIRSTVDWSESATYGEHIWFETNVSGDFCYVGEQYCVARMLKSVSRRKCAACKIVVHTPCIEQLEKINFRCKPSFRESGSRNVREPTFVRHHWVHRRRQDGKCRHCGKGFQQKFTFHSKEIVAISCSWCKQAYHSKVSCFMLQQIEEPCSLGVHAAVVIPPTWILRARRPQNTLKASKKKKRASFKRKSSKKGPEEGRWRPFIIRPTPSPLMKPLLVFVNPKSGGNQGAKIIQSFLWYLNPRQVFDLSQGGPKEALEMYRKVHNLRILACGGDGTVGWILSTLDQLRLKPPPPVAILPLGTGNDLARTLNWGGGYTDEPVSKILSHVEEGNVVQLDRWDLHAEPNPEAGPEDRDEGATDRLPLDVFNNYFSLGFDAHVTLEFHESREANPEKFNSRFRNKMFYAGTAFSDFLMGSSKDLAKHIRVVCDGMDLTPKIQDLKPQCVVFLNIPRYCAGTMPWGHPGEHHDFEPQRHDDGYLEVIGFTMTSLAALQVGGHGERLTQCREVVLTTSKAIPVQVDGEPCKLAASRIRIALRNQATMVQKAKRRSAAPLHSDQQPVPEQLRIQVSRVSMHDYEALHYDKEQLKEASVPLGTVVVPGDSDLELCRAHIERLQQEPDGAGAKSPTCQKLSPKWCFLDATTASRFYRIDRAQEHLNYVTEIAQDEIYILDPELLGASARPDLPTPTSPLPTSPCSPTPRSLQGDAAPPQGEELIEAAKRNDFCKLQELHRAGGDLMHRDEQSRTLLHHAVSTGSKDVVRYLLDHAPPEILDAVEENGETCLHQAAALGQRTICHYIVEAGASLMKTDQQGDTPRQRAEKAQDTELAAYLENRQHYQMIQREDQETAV
DGKα, sequence (P23743 whole entry): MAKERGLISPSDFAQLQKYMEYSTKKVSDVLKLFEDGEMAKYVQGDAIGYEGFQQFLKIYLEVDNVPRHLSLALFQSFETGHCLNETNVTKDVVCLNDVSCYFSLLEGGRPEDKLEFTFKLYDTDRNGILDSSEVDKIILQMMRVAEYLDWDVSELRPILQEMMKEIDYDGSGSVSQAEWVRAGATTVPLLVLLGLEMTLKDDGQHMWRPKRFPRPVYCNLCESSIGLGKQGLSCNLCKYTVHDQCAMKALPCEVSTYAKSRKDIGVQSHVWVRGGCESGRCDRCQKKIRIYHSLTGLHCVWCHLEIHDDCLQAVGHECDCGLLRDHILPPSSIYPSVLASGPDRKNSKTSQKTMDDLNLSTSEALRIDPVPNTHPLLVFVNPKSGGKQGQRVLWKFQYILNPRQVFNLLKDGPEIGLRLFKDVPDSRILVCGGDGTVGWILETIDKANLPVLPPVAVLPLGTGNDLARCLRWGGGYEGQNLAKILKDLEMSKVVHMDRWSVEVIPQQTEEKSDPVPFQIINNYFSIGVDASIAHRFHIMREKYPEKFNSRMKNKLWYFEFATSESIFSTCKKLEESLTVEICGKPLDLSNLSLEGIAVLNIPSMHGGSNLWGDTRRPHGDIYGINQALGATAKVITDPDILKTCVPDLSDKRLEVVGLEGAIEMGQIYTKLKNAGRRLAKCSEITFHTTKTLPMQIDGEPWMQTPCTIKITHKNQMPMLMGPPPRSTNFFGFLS

| IC50 (DGKα) [nM] | IC50 (DGKζ) [nM] | SMILES |
| --- | --- | --- |
| ≤ 20 | ≤ 20 | CC[C@@H]1CN(c2nc3nncn3c3c2nc(C)n3C[C@@H]2CCCO2)[C@@H](C)CN1[C@H](c1ccc(OC(F)(F)F)cc1)C(C)C [Example 130, 4-((2S,5R)-5-ethyl-2-methyl-4-((S)-2-methyl-1-(4-(trifluoromethoxy)phenyl)propyl)piperazin-1-yl)-2-methyl-1-(((S)-tetrahydrofuran-2-yl)methyl)-1H-[1,2,4]triazolo[3,4-b]purine] |
| ≤ 20 | ≤ 20 | CC[C@@H]1CN(c2nc3nncn3c3c2nc(C)n3C[C@@H]2CCCO2)[C@@H](C)CN1[C@@H](c1ccc(OC(F)(F)F)cc1)C(C)C [Example 131, 4-((2S,5R)-5-ethyl-2-methyl-4-((R)-2-methyl-1-(4-(trifluoromethoxy)phenyl)propyl)piperazin-1-yl)-2-methyl-1-(((S)-tetrahydrofuran-2-yl)methyl)-1H-[1,2,4]triazolo[3,4-b]purine] |
| ≤ 20 | ≤ 20 | CC[C@@H]1CN(c2nc3nncn3c3c2nc(C)n3C[C@@H]2CCCO2)[C@@H](C)CN1C(c1ccc(F)cc1)c1ccc(C#N)cc1 (stereo partly drawn) [Example 132, 4-(((2R,5S)-2-Ethyl-5-methyl-4-(2-methyl-1-(((S)-tetrahydrofuran-2-yl)methyl)-1H-[1,2,4]triazolo[3,4-b]purin-4-yl)piperazin-1-yl)(4-fluorophenyl)methyl)benzonitrile] |
| ≤ 20 | ≤ 20 | CC[C@@H]1CN(c2nc3nncn3c3c2nc(C)n3C[C@@H]2CCCO2)[C@@H](C)CN1C(c1ccc(F)cc1)c1ccc(C#N)cc1 (stereo partly drawn) [Example 133, 4-(((2R,5S)-2-Ethyl-5-methyl-4-(2-methyl-1-(((S)-tetrahydrofuran-2-yl)methyl)-1H-[1,2,4]triazolo[3,4-b]purin-4-yl)piperazin-1-yl)(4-fluorophenyl)methyl)benzonitrile] |
| ≤ 20 | ≤ 20 | Cc1nc2c(N3C[C@@H](C)N(C(c4ccc(C(F)(F)F)cc4)c4ccc(C(F)(F)F)cc4)C[C@@H]3C)nc3nncn3c2n1C[C@@H]1CCCO1 [Example 134, 4-((2S,5R)-4-(Bis(4-(trifluoromethyl)phenyl)methyl)-2,5-dimethylpiperazin-1-yl)-2-methyl-1-(((S)-tetrahydrofuran-2-yl)methyl)-1H-[1,2,4]triazolo[3,4-b]purine] |
| ≤ 20 | ≤ 20 | Cc1nc2c(N3C[C@@H](C)N(C(c4ccc(C(F)F)c(F)c4)C4CC(F)(F)C4)C[C@@H]3C)nc3nncn3c2n1C[C@@H]1CCCO1 (stereo partly drawn) [Example 135, 4-((2S,5R)-4-((3,3-Difluorocyclobutyl)(4-(difluoromethyl)-3-fluorophenyl)methyl)-2,5-dimethylpiperazin-1-yl)-2-methyl-1-(((S)-tetrahydrofuran-2-yl)methyl)-1H-[1,2,4]triazolo[3,4-b]purine] |
| ≤ 20 | ≤ 20 | C[C@@H]1CN(c2nc3nncn3c3c2ncn3CCN(C)C)[C@@H](C)CN1C(c1ccc(Cl)c(F)c1)C1CC(F)(F)C1 (stereo partly drawn) [Example 136, 2-(4-((2S,5R)-4-((4-Chloro-3-fluorophenyl)(3,3-difluorocyclobutyl)methyl)-2,5-dimethylpiperazin-1-yl)-1H-[1,2,4]triazolo[3,4-b]purin-1-yl)-N,N-dimethylethan-1-amine] |
| ≤ 20 | ≤ 20 | Cc1nc2c(N3C[C@@H](CO)N(C(c4ccc(Cl)cc4)c4ccc(Cl)cc4)C[C@@H]3C)nc3nncn3c2n1C[C@@H]1CCCO1 [Example 137, ((2S,5S)-1-(Bis(4-chlorophenyl)methyl)-5-methyl-4-(2-methyl-1-(((S)-tetrahydrofuran-2-yl)methyl)-1H-[1,2,4]triazolo[3,4-b]purin-4-yl)piperazin-2-yl)methanol] |
| ≤ 20 | ≤ 20 | Cc1nc2c(N3C[C@@H](C)N([C@H](c4ccc(Br)cc4)C(C)C)C[C@@H]3C)nc3nncn3c2n1C[C@@H]1CCCO1 [Example 138, 4-((2S,5R)-4-((S)-1-(4-Bromophenyl)-2-methylpropyl)-2,5-dimethylpiperazin-1-yl)-2-methyl-1-(((S)-tetrahydrofuran-2-yl)methyl)-1H-[1,2,4]triazolo[3,4-b]purine] |
| ≤ 20 | ≤ 20 | Cc1nc2c(N3C[C@@H](C)N([C@@H](c4ccc(Br)cc4)C(C)C)C[C@@H]3C)nc3nncn3c2n1C[C@@H]1CCCO1 [Example 139, 4-((2S,5R)-4-((R)-1-(4-bromophenyl)-2-methylpropyl)-2,5-dimethylpiperazin-1-yl)-2-methyl-1-(((S)-tetrahydrofuran-2-yl)methyl)-1H-[1,2,4]triazolo[3,4-b]purine] |
